According to patent publication US6706740B2, “Fungicidal heterocyclic aromatic amides and their compositions, methods of use and preparation” (Dow AgroSciences LLC, priority 1999, dated 2004):

Test system: Magnaporthe grisea (Pyricularia oryzae—PYRIOR)
Experiment: microbe, parasite or virus in culture
Type: cell-based
Conditions: Pyricularia oryzae, read-out: PYRIOR in vitro Growth Inhibition

Compound | inhibition at 25 ppm
CC1(C)CC(NC(=O)c2nc3ccccc3nc2O)CC(C)(C)C1 [Compound 563] | < 80%
COc1ccnc(C(=O)NC2CSCC(c3ccccc3)C2)c1O (stereo not drawn) [Compound 324] | < 80%
CSc1ccnc(C(=O)Nc2ccc(Oc3cccc(C(F)(F)F)c3)cc2)c1O [Compound 479] | < 80%
O=C(NCc1ccccc1Cl)c1ncccc1O [Compound 218] | > 80%

Test system: Rhizoctonia solani (RHIZSO)
Experiment: microbe, parasite or virus in culture
Type: cell-based
Conditions: Rhizoctonia solani, read-out: RHIZSO in vitro Growth Inhibition

Compound | inhibition at 25 ppm
CC1(C)CC(NC(=O)c2nc3ccccc3nc2O)CC(C)(C)C1 [Compound 563] | < 80%
COc1ccnc(C(=O)NC2CSCC(c3ccccc3)C2)c1O (stereo not drawn) [Compound 324] | > 80%
CSc1ccnc(C(=O)Nc2ccc(Oc3cccc(C(F)(F)F)c3)cc2)c1O [Compound 479] | < 80%
O=C(NCc1ccccc1Cl)c1ncccc1O [Compound 218] | > 80%

Test system: Mycosphaerella graminicola (Septoria tritici—SEPTTR)
Experiment: In vitro fungal growth inhibition, Mycosphaerella graminicola (SEPTTR)
Type: cell-based
Conditions: Zymoseptoria tritici; 25 ppm in growth medium; read-out: SEPTTR in vitro Growth Inhibition

Compound | inhibition at 25 ppm
COc1ccnc(C(=O)NC2CSCC(c3ccccc3)C2)c1O (stereo not drawn) [Compound 324] | > 80%
O=C(NCc1ccccc1Cl)c1ncccc1O [Compound 218] | < 80%

Same assay, conditions: Zymoseptoria tritici; 25 ppm in the growth medium; read-out: SEPTTR in vitro Growth Inhibition

Compound | inhibition at 25 ppm
CC1(C)CC(NC(=O)c2nc3ccccc3nc2O)CC(C)(C)C1 [Compound 563] | < 80%
CSc1ccnc(C(=O)Nc2ccc(Oc3cccc(C(F)(F)F)c3)cc2)c1O [Compound 479] | < 80%

Test system: Stagonospora nodorum (Leptosphaeria nodorum—LEPTNO)
Experiment: In vitro fungal growth inhibition, Stagonospora nodorum (LEPTNO)
Type: cell-based
Conditions: Leptosphaeria; 25 ppm in growth medium; read-out: LEPTNO in vitro Growth Inhibition

Compound | inhibition at 25 ppm
COc1ccnc(C(=O)NC2CSCC(c3ccccc3)C2)c1O (stereo not drawn) [Compound 324] | > 80%
O=C(NCc1ccccc1Cl)c1ncccc1O [Compound 218] | > 80%

Same assay, conditions: Leptosphaeria; 25 ppm in the growth medium; read-out: LEPTNO in vitro Growth Inhibition

Compound | inhibition at 25 ppm
CC1(C)CC(NC(=O)c2nc3ccccc3nc2O)CC(C)(C)C1 [Compound 563] | < 80%
CSc1ccnc(C(=O)Nc2ccc(Oc3cccc(C(F)(F)F)c3)cc2)c1O [Compound 479] | < 80%

Test system: Ustilago maydis (USTIMA)
Experiment: microbe, parasite or virus in culture
Type: cell-based
Conditions: Mycosarcoma maydis, read-out: USTIMA in vitro Growth Inhibition

Compound | inhibition at 25 ppm
CC1(C)CC(NC(=O)c2nc3ccccc3nc2O)CC(C)(C)C1 [Compound 563] | < 80%
COc1ccnc(C(=O)NC2CSCC(c3ccccc3)C2)c1O (stereo not drawn) [Compound 324] | > 80%
CSc1ccnc(C(=O)Nc2ccc(Oc3cccc(C(F)(F)F)c3)cc2)c1O [Compound 479] | < 80%
O=C(NCc1ccccc1Cl)c1ncccc1O [Compound 218] | > 80%

Test system: Phytophthora infestans (PHYTIN)
Experiment: microbe, parasite or virus in culture
Type: cell-based
Conditions: Phytophthora infestans, read-out: PHYTIN in vitro Growth Inhibition

Compound | inhibition at 25 ppm
CC1(C)CC(NC(=O)c2nc3ccccc3nc2O)CC(C)(C)C1 [Compound 563] | < 80%
COc1ccnc(C(=O)NC2CSCC(c3ccccc3)C2)c1O (stereo not drawn) [Compound 324] | > 80%
CSc1ccnc(C(=O)Nc2ccc(Oc3cccc(C(F)(F)F)c3)cc2)c1O [Compound 479] | < 80%
O=C(NCc1ccccc1Cl)c1ncccc1O [Compound 218] | > 80%

Test system: Phytophthora infestans—PHYTIN
Experiment: whole plant or invertebrate
Type: in vivo
Conditions: Phytophthora, in Solanum lycopersicum, 24 h, read-out: PHYTIN in vivo 1 Day Protectant

Compound | pest or weed control at 100 ppm
CC1(C)CC(NC(=O)c2nc3ccccc3nc2O)CC(C)(C)C1 [Compound 563] | < 25%
COc1ccnc(C(=O)NC2CSCC(c3ccccc3)C2)c1O (stereo not drawn) [Compound 324] | < 25%
CSc1ccnc(C(=O)Nc2ccc(Oc3cccc(C(F)(F)F)c3)cc2)c1O [Compound 479] | < 25%
O=C(NCc1ccccc1Cl)c1ncccc1O [Compound 218] | < 25%

Test system: Puccinia recondita—PUCCRT
Experiment: Brown Rust of Wheat, in vivo whole plant, 24 Hour Protectant
Conditions: Puccinia; 100 ppm spray, 24 hour protectant, wheat; control of fungal infection vs untreated plants; read-out: PUCCRT in vivo 1 Day Protectant

Compound | pest or weed control at 100 ppm
COc1ccnc(C(=O)NC2CSCC(c3ccccc3)C2)c1O (stereo not drawn) [Compound 324] | 25 to 74%
O=C(NCc1ccccc1Cl)c1ncccc1O [Compound 218] | < 25%

Same assay, conditions: Puccinia; wheat plants sprayed at 100 ppm, inoculated after 24 hours; control of fungal infection vs untreated plants; read-out: PUCCRT in vivo 1 Day Protectant

Compound | pest or weed control at 100 ppm
CC1(C)CC(NC(=O)c2nc3ccccc3nc2O)CC(C)(C)C1 [Compound 563] | < 25%
CSc1ccnc(C(=O)Nc2ccc(Oc3cccc(C(F)(F)F)c3)cc2)c1O [Compound 479] | < 25%

Test system: Erysiphe graminis—ERYSGT
Experiment: Powdery Mildew of Wheat, in vivo whole plant, 24 Hour Protectant
Conditions: Erysiphe; 100 ppm spray, 24 hour protectant, wheat; control of fungal infection vs untreated plants; read-out: ERYSGT in vivo 1 Day Protectant

Compound | pest or weed control at 100 ppm
COc1ccnc(C(=O)NC2CSCC(c3ccccc3)C2)c1O (stereo not drawn) [Compound 324] | 25 to 74%
O=C(NCc1ccccc1Cl)c1ncccc1O [Compound 218] | < 25%

Same assay, conditions: Erysiphe; wheat plants sprayed at 100 ppm, inoculated after 24 hours; control of fungal infection vs untreated plants; read-out: ERYSGT in vivo 1 Day Protectant

Compound | pest or weed control at 100 ppm
CC1(C)CC(NC(=O)c2nc3ccccc3nc2O)CC(C)(C)C1 [Compound 563] | < 25%
CSc1ccnc(C(=O)Nc2ccc(Oc3cccc(C(F)(F)F)c3)cc2)c1O [Compound 479] | < 25%

Test system: Septoria tritici—SEPTTR
Experiment: Leaf Blotch of Wheat, in vivo whole plant, 24 Hour Protectant
Conditions: Zymoseptoria tritici, 24 h, 100 ppm spray, 24 hour protectant, wheat; control of fungal infection vs untreated plants; read-out: SEPTTR in vivo 1 Day Protectant

Compound | pest or weed control at 100 ppm
COc1ccnc(C(=O)NC2CSCC(c3ccccc3)C2)c1O (stereo not drawn) [Compound 324] | 25 to 74%
O=C(NCc1ccccc1Cl)c1ncccc1O [Compound 218] | < 25%

Same assay, conditions: Zymoseptoria tritici, 24 h, wheat plants sprayed at 100 ppm, inoculated after 24 hours; control of fungal infection vs untreated plants; read-out: SEPTTR in vivo 1 Day Protectant

Compound | pest or weed control at 100 ppm
CC1(C)CC(NC(=O)c2nc3ccccc3nc2O)CC(C)(C)C1 [Compound 563] | < 25%
CSc1ccnc(C(=O)Nc2ccc(Oc3cccc(C(F)(F)F)c3)cc2)c1O [Compound 479] | 25 to 74%

Test system: Leptosphaeria nodorum—LEPTNO
Experiment: Glume Blotch of Wheat, in vivo whole plant, 24 Hour Protectant
Conditions: 100 ppm spray, 24 hour protectant, wheat; control of fungal infection vs untreated plants

Compound | LEPTNO in vivo 1 Day Protectant
COc1ccnc(C(=O)NC2CSCC(c3ccccc3)C2)c1O (stereo not drawn) [Compound 324] | + +

Same assay, conditions: Leptosphaeria; 100 ppm spray, 24 hour protectant, wheat; control of fungal infection vs untreated plants; read-out: LEPTNO in vivo 1 Day Protectant

Compound | pest or weed control at 100 ppm
O=C(NCc1ccccc1Cl)c1ncccc1O [Compound 218] | < 25%

Same assay, conditions: Leptosphaeria; wheat plants sprayed at 100 ppm, inoculated after 24 hours; control of fungal infection vs untreated plants; read-out: LEPTNO in vivo 1 Day Protectant

Compound | pest or weed control at 100 ppm
CC1(C)CC(NC(=O)c2nc3ccccc3nc2O)CC(C)(C)C1 [Compound 563] | 25 to 74%
CSc1ccnc(C(=O)Nc2ccc(Oc3cccc(C(F)(F)F)c3)cc2)c1O [Compound 479] | 25 to 74%

Test system: not given
Experiment: not given
Conditions: not given

Compound | melting point
CC1(C)CC(NC(=O)c2nc3ccccc3nc2O)CC(C)(C)C1 [Compound 563] | > 300 °C
COc1ccnc(C(=O)NC2CSCC(c3ccccc3)C2)c1O (stereo not drawn) [Compound 324] | 141 to 143 °C
CSc1ccnc(C(=O)Nc2ccc(Oc3cccc(C(F)(F)F)c3)cc2)c1O [Compound 479] | 129 to 132 °C
O=C(NCc1ccccc1Cl)c1ncccc1O [Compound 218] | 97 to 99 °C
